From PubChem BioAssay (NCI)
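Exposure lasted 48 hours, with cells grown in 96-well plates and compounds tested at five concentrations. At the TGI there is no net growth.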

How the values were obtained:
Assay in all cases: NCI-60 cell line screen, 48 h
[1] = tested on: DU-145 prostate
[2] = tested on: SF-539 CNS
[3] = tested on: HT29 colon
[4] = tested on: U251 CNS
[5] = tested on: NCI-H226 lung
[6] = tested on: SK-MEL-28 melanoma
[7] = tested on: HOP-92 NSCLC
[8] = tested on: PC-3 prostate
[9] = tested on: KM12 colon
[10] = tested on: MDA-MB-435
[11] = tested on: A498 renal
[12] = tested on: EKVX NSCLC
[13] = tested on: SK-MEL-5 melanoma
[14] = tested on: SN12C renal
[15] = tested on: NCI/ADR-RES ovarian
[16] = tested on: OVCAR-4 ovarian
[17] = tested on: SF-268 CNS
[18] = tested on: MDA-MB-231 breast
[19] = tested on: MDA-N
[20] = tested on: IGROV1 ovarian
[21] = tested on: OVCAR-8 ovarian
[22] = tested on: SNB-19 CNS
[23] = tested on: CAKI-1 renal
[24] = tested on: M14 melanoma
[25] = tested on: SW-620 colon
[26] = tested on: HCT-116 colon
[27] = tested on: SF-295 CNS
[28] = tested on: NCI-H23 lung
[29] = tested on: HCT-15 colon
[30] = tested on: SNB-75 CNS
[31] = tested on: ACHN renal
[32] = tested on: A549 NSCLC
[33] = tested on: OVCAR-5 ovarian
[34] = tested on: OVCAR-3 ovarian
[35] = tested on: RXF 393 renal
[36] = tested on: UO-31 renal
[37] = tested on: TK-10 renal
[38] = tested on: COLO 205 colon
[39] = tested on: MCF7 breast
[40] = tested on: SK-OV-3 ovarian
[41] = tested on: HL-60(TB) leukemia
[42] = tested on: T-47D breast
[43] = tested on: RPMI-8226 leukemia
[44] = tested on: MOLT-4 leukemia
[45] = tested on: SR leukemia
[46] = tested on: LOX IMVI melanoma
[47] = tested on: MALME-3M melanoma
[48] = tested on: UACC-62 melanoma
[49] = tested on: HCC-2998 colon
[50] = tested on: UACC-257 melanoma
[51] = tested on: K-562 leukemia
[52] = tested on: HOP-62 NSCLC
[53] = tested on: CCRF-CEM leukemia
[54] = tested on: 786-0 renal
[55] = tested on: NCI-H460 lung
[56] = tested on: NCI-H522 lung
[57] = tested on: SK-MEL-2 melanoma
[58] = tested on: HS 578T breast

## CSc1ccc(C(=C=C=C(c2ccc(SC)s2)c2ccc(SC)s2)c2ccc(SC)s2)s1
[1]
  TGI: > 10 µM
[2]
  TGI: > 10 µM
[3]
  TGI: > 10 µM
[4]
  TGI: > 10 µM
[5]
  TGI: > 10 µM
[6]
  TGI: > 10 µM
[7]
  TGI: > 10 µM
[8]
  TGI: > 10 µM
[9]
  TGI: > 10 µM
[10]
  TGI: > 10 µM
[11]
  TGI: > 10 µM
[12]
  TGI: > 10 µM
[13]
  TGI: > 10 µM
[14]
  TGI: > 10 µM
[15]
  TGI: > 10 µM
[16]
  TGI: > 10 µM
[17]
  TGI: > 10 µM
[18]
  TGI: > 10 µM
[19]
  TGI: > 10 µM
[20]
  TGI: > 10 µM
[21]
  TGI: > 10 µM
[22]
  TGI: > 10 µM
[23]
  TGI: > 10 µM
[24]
  TGI: > 10 µM
[25]
  TGI: > 10 µM
[26]
  TGI: > 10 µM
[27]
  TGI: > 10 µM
[28]
  TGI: > 10 µM
[29]
  TGI: > 10 µM
[30]
  TGI: > 10 µM
[31]
  TGI: > 10 µM
[32]
  TGI: > 10 µM
[33]
  TGI: > 10 µM
[34]
  TGI: > 10 µM
[35]
  TGI: > 10 µM
[36]
  TGI: > 10 µM
[37]
  TGI: > 10 µM
[38]
  TGI: > 10 µM

## CCSc1[nH]c(NC(=S)NC(=O)c2ccccc2Cl)c(C(N)=O)c1C(N)=O
[1]
  TGI: > 10 µM
[3]
  TGI: > 10 µM
[39]
  TGI: > 10 µM
[40]
  TGI: > 10 µM
[41]
  TGI: > 10 µM
[42]
  TGI: > 10 µM
[6]
  TGI: > 10 µM
[7]
  TGI: > 10 µM
[43]
  TGI: > 10 µM
[8]
  TGI: > 10 µM
[44]
  TGI: > 10 µM
[45]
  TGI: > 10 µM
[9]
  TGI: > 10 µM
[10]
  TGI: > 10 µM
[12]
  TGI: > 10 µM
[13]
  TGI: > 10 µM
[14]
  TGI: > 10 µM
[16]
  TGI: > 10 µM
[46]
  TGI: > 10 µM
[47]
  TGI: > 10 µM
[48]
  TGI: > 10 µM
[17]
  TGI: > 10 µM
[18]
  TGI: > 10 µM
[19]
  TGI: > 10 µM
[49]
  TGI: > 10 µM
[20]
  TGI: > 10 µM
[50]
  TGI: > 10 µM
[51]
  TGI: > 10 µM
[21]
  TGI: > 10 µM
[23]
  TGI: > 10 µM
[24]
  TGI: > 10 µM
[52]
  TGI: > 10 µM
[25]
  TGI: > 10 µM
[27]
  TGI: > 10 µM
[28]
  TGI: > 10 µM
[29]
  TGI: > 10 µM
[30]
  TGI: > 10 µM
[53]
  TGI: > 10 µM
[32]
  TGI: > 10 µM
[35]
  TGI: > 10 µM
[37]
  TGI: > 10 µM
[38]
  TGI: > 10 µM
[54]
  TGI: > 10 µM

## Cc1cc(=O)[nH]c(-n2[nH]c(C)c(CCO)c2=O)n1
[1]
  TGI: > 100 µM
[2]
  TGI: > 100 µM
[3]
  TGI: > 100 µM
[55]
  TGI: > 100 µM
[4]
  TGI: > 100 µM
[39]
  TGI: > 100 µM
[40]
  TGI: > 100 µM
[41]
  TGI: > 100 µM
[5]
  TGI: > 100 µM
[42]
  TGI: > 100 µM
[6]
  TGI: > 100 µM
[43]
  TGI: > 100 µM
[8]
  TGI: > 100 µM
[9]
  TGI: > 100 µM
[10]
  TGI: > 100 µM
[11]
  TGI: > 100 µM
[12]
  TGI: > 100 µM
[13]
  TGI: > 100 µM
[14]
  TGI: > 100 µM
[15]
  TGI: > 100 µM
[16]
  TGI: > 100 µM
[46]
  TGI: > 100 µM
[47]
  TGI: > 100 µM
[48]
  TGI: > 100 µM
[17]
  TGI: > 100 µM
[18]
  TGI: > 100 µM
[19]
  TGI: > 100 µM
[49]
  TGI: > 100 µM
[20]
  TGI: > 100 µM
[50]
  TGI: > 100 µM
[51]
  TGI: > 100 µM
[21]
  TGI: > 100 µM
[22]
  TGI: > 100 µM
[56]
  TGI: > 100 µM
[23]
  TGI: > 100 µM
[24]
  TGI: > 100 µM
[52]
  TGI: > 100 µM
[25]
  TGI: > 100 µM
[26]
  TGI: > 100 µM
[27]
  TGI: > 100 µM
[28]
  TGI: > 100 µM
[29]
  TGI: > 100 µM
[53]
  TGI: > 100 µM
[31]
  TGI: > 100 µM
[32]
  TGI: > 100 µM
[33]
  TGI: > 100 µM
[57]
  TGI: > 100 µM
[34]
  TGI: > 100 µM
[35]
  TGI: > 100 µM
[36]
  TGI: > 100 µM
[58]
  TGI: > 100 µM
[37]
  TGI: > 100 µM
[38]
  TGI: > 100 µM
[54]
  TGI: > 100 µM
